Data taken from patent US20210346259A1, “Oral Care Compositions Comprising Dicarboxylic Acid” (The Procter & Gamble Company, priority 2020, published 2021).

Experiments:
[1] = Powder Stain Removal Model (PSRM), tea stain + FeCl3; settings: pH 7
Source text: The PSRM is a screening technique where hydroxyapatite powder (HAP) is used as a substrate for stain accumulation (see Baig A A; Kozak K M; Cox E R et al; J Clin Dent 2002, 13:19 24). The purpose of this technique was to illustrate and quantify the stain removal properties of chemical agents used in the oral care compositions disclosed herein with respect to pH. Hydroxyapatite powder provides a large surface area to which tea chromogens adsorbed. In addition to the published PSRM a modification of the model was used where tea stain was used in conjunction with Iron Trichloride (FeCl3) to simulate stains that are more resistant to removal. Stains found in the oral cavity commonly contain Fe(III) (Tantbirojn D, Douglas W H et al Eur J Oral Sci 1998; 106,971-976). […] The magnitude of stain removal was quantified by image analysis. […] VWR BDH9234) was added under stirring. Then HAP-powder was added, powder was centrifuged, washed and dried to yield a deeply colored powder. Treatment solutions were prepared for oxalate and pyrophosphate anions. Oxalate solutions (0.34M, 3%) of different pH (4.5, 5.0, 5.5, 7) were obtained by mixing appropriate ratios of potassium oxalate (62.79 g/L Potassium Oxalate Monohydrate in water, pH-7.0) and oxalic acid solution (30.69 g Oxalic Acid/L in water, pH-1.3). Lower concentrations were obtained by further dilution with water. A pyrophosphate solution, equimolar to a 3% Oxalate solution (75.65 g/L Sodium acid pyrophosphate, pH-adjusted with IN NaOH to pH7) was used as comparison. HAP powders were treated with the treatment solutions to investigate their stain removal potential. […] Supernatant was decanted and the pellet was washed twice by adding 25 mL of water, vortexing, centrifuging at 14,000 rpm for 15 mins, and decanting. The twice washed pellet was resuspended in 30 mL water by vortexing for 1 min, then vacuum-filtered (Millipore MF Membrane Filters 8.0 um, 47 mm) to collect the powder. […] Treatments were done in triplicate. A control disk using tea-stained HAP from the same batch treated with water was prepared as well. The color of the laminated samples was measured using a color-calibrated, white-balanced digital camera and RGB values were acquired. […] The light system was equipped with Dedo lights (model number DLH2) equipped with 150 watt, 24V bulbs model number (Xenophot model number HL X64640), positioned about 30 cm apart (measured from the center of the external circular surface of one of the glass lens through which the light exits to the other) and aimed at a 45 degree angle such that the light paths. […] Stain removal was determined as change in L (brightness) vs. untreated stained HAP, calculated as ΔL=(L for treated HAP-L for the untreated stained HAP). […]

[2] = Powder Stain Removal Model (PSRM), tea stain; settings: pH 7
Experimental: A tea solution was prepared using 8 regular teabags (Lipton Black Tea) in 400 mL boiling water and steeping for 5 min. After letting the tea cool to 50° C. it was filtered through a Nalgene sterile filter (Thermo Scientific Nalgene Rapid flow 75 mm Filter Unit, 0.2SCFA). 10 g Hydroxyapatite Powder (HAP, Bio-Gel HTP-Gel Catalog #130-0421, Bio-Rad Laboratories Hercules, Calif.) was added and the mixture was stirred for 5 min, distributed into 12 50-mL centrifuge tubes and centrifuged for 15 min at 14,000 rpm (Lynx 6000, Thermo Fischer with Lynx F14-14X50CY rotor). Supernatant was decanted, the remaining stained HAP-powder was washed twice with water by adding 25 ml of water, vortexing, centrifuging at 14,000 rpm for 15 mins, and decanting liquid. Centrifuge tubes were placed in a convection oven overnight at 60° C. to dry stained HAP. Once dried, stained HAP was pooled and ground to a fine powder with pestle and mortar and stored in a dry dark place at room temperature.
HAP powders were treated with the treatment solutions to investigate their stain removal potential. Treatment (20 mL of a 1:4 dilution of treatment solutions above) was added to stained HAP powder (200 mg) in a 50 mL centrifuge, vortexed for 1 min, then centrifuged at 14,000 rpm for 15 min. Supernatant was decanted and the pellet was washed twice by adding 25 mL of water, vortexing, centrifuging at 14,000 rpm for 15 mins, and decanting. […]

[3] = Slurry pH of enamel softening treatments; type: physicochemical; settings: treatment as used in enamel softening, Study 1
Source text: The pH of the oral care compositions as described herein can be from about 4 to about 7, from about 4 to about 6, from about 4.5 to about 6.5, or from about 4.5 to about 5.5. The pH of a mouthrinse solution can be determined as the pH of the neat solution. The pH of a dentifrice composition can be determined as a slurry pH, which is the pH of a mixture of the dentifrice composition and water, such as a 1:4, 1:3, or 1:2 mixture of the dentifrice composition and water.

[4] = human, 1 %, pH 2.19
Experimental: The enamel softening method is used to determine the potential of oral care compositions to damage (or not to damage) dental enamel with repeated exposure.
A core of sound human enamel with a diameter of 3-4 mm was extracted from whole human teeth. The cores were mounted in dental acrylic and the surfaces were ground using 600 grit paper. Increasingly fine lapping papers were then used to polish the surface to a 1μ polish. Samples were sonicated in deionized water for 30 min. Enamel specimens were then rinsed with deionized water and wiped to remove any residual polish. Each enamel specimen was inspected and samples with large cracks or uneven calcification were discarded. […]
The artificial saliva solution of TABLE 6 was prepared on the day before the experiment. Also on the day before the experiment, the Vickers hardness of each enamel specimen was measured using a hardness indenter at three separate locations spread across the enamel surface. A 50 g load was applied for 10 seconds, and the diagonal lengths of the resulting indents were measured using a 20× magnification objective. […]
On the day following the cycling experiment, the post-cycling hardness was obtained for each specimen using a similar procedure to that described for the pre-cycling hardness measurements. […] The average change in specimen hardness with respect to treatment and its standard deviation were then determined. […]

[5] = 0.250 % Active (equimolar to Oxalate Solution)
[6] = 1.250 % Active (equimolar to Oxalate Solution)
[7] = 2.5200 % Active (equimolar to Oxalate Solution)
[8] = 7.56.00 % Active (equimolar to Oxalate Solution)

| Slurry pH [3] | Δ SMH (change in surface microhardness) [4] | Compound | Tea Stain + FeCl3 (ΔL) [1, 5] | Tea Stain + FeCl3 (ΔL) [1, 6] | Tea Stain + FeCl3 (ΔL) [1, 7] | Tea Stain + FeCl3 (ΔL) [1, 8] | Tea Stain (ΔL) [2, 5] | Tea Stain (ΔL) [2, 6] | Tea Stain (ΔL) [2, 7] | Tea Stain (ΔL) [2, 8] |
| --- | --- | --- | --- | --- | --- | --- | --- | --- | --- | --- |
| – | – | O=P([O-])(O)OP(=O)([O-])O.[Na+].[Na+] [Pyrophosphate Solution, Sodium acid pyrophosphate] | −0.97 | 0.02 | 0.77 | 2.88 | 5.16 | 5.97 | 7.88 | 9.85 |
| 2.19 | −175.68 | O=C(O)CC(O)(CC(=O)O)C(=O)O [1% Citric Acid, citric acid] | – | – | – | – | – | – | – | – |
